Assay results as given in publication PMC9828493, “Design, Synthesis, and in Vitro Evaluation of 4‐(4‐Hydroxyphenyl)piperazine‐Based Compounds Targeting Tyrosinase” (Chemmedchem, 2022).
Like-named read-outs stand apart in the source and are kept apart here.

How the values were obtained:
[1] = molecular target: T1, TYR from Agaricus bisporus (AbTYR) (Agaricus bisporus, UniProt C7FF04); parameters: purchased Sigma Chemical Co. (St. Louis, MO, USA); conditions: previous paper; read-out: IC50, inhibition of AbTYR; cited from earlier work
T1 sequence (C7FF04 1-392 limits assumed): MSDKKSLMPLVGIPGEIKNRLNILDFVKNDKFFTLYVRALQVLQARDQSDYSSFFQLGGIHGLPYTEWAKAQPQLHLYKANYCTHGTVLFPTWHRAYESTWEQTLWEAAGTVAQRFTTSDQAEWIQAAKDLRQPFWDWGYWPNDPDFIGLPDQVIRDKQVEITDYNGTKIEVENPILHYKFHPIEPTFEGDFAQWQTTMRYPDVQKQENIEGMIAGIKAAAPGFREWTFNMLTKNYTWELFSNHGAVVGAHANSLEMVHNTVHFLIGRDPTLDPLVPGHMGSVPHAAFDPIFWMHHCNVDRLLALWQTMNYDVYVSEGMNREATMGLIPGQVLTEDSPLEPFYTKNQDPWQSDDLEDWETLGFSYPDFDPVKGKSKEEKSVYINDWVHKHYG

[2] = positive control; read-out: EC50 [μM], antioxidant activity (ABTS); cited from earlier work
[3] = ABTS radical scavenging antioxidant assay; conditions: mean ± SD of three independent experiments
Description: ABTS [2,20‐azinobis‐(3‐ethylbenzothiazoline‐6‐sulfonic acid)] assay was used to determine the total free radical‐scavenging capacity of compounds. 6‐hydroxy‐2,5,7,8‐tetramethylchromane‐2‐carboxylic acid (Trolox) was used as the reference antioxidant.[15]
The ABTS⋅^+ method is based on the capacity of an antioxidant to scavenge the free ABTS⋅^+. To produce this radical an aqueous mixture of 7 mM ABTS with 2.45 mM potassium persulfate was required.
The ABTS solution was kept in the dark, at room temperature, for 24 h before use. The ABTS⋅^+ mixture was diluted, and each compound (10 μL) was added to solution. After 1 min of incubation the absorbance was recorded at 734 nm. Afterwards the decrease in A734 was calculated and referred to the Trolox standard curve. Antioxidant activity was expressed as concentration of the compound to give a 50 % reduction in the original absorbance (EC50).

[4] = molecular target: T1, TYR from Agaricus bisporus (AbTYR); assay: Kinetic analysis of AbTYR inhibition (Lineweaver-Burk plots, L-DOPA); conditions: L-DOPA 0.6–5 mM, three inhibitor concentrations, phosphate buffer pH 6.8
Description: Kinetics studies were performed in presence of three different concentrations of selected inhibitors, L‐DOPA (0.6–5 mM) and AbTYR in phosphate buffer (0.05 M, pH 6.8).
(§1) absorbance was measured after 60 or 1 min of incubation time in the reaction mixture containing
(§2) L-tyrosine or L-DOPA, respectively. The inhibitory activity was expressed as inhibition percentage
(§3) calculated by interpolation of the dose-response curves. Kojic acid [5-hydroxy-2-(hydroxymethyl)-
(§4) 4H-pyran-4-one], a fungal secondary metabolite used as skin whitening agent, was employed as a
(§5) positive standard (10–50 μM). A spectrophotometer (Agilent Cary 60 UV-Vis Spectrophotometer)
(§6) The inhibition kinetics on the tyrosinase were studied using Lineweaver-Burk double reciprocal
(§7) plots. The reaction mixture consisted of four different concentrations of the substrate L-DOPA
(§8) (0.6–5 mM), and mushroom tyrosinase in phosphate buffer (0.05 M, pH 6.8). Three different
(§9) concentrations were used for the analysis. Preincubation and measurement time were the same
(§10) as discussed in mushroom tyrosinase inhibition assay. The Michaelis-Menten constant (Km) and
(§11) maximal velocity (Vmax) of tyrosinase were determined by Lineweaver-Burk plots.

[5] = molecular target: T1, TYR from Agaricus bisporus (AbTYR); assay: Inhibition of monophenolase activity of AbTYR (L-Tyr as substrate); assay type: biochemical; parameters: purchased Sigma Chemical Co. (St. Louis, MO, USA); conditions: 40 μM (Figure S69)
Description: Mushroom tyrosinase inhibition assay
6.8). […] Subsequently, 0.05 mL of
L-tyrosine or L-DOPA, respectively.
respect to control sample.
positive standard (10–50 μM).
was used for absorbance measurements.
Kinetic analysis of the tyrosinase inhibition

[6] = system: B16F10 cells; assay: Cell viability assay (MTT); assay type: cell-based, Murine; conditions: 48 h; for cytotoxic effect (MTT): until a concentration of 10 μM
Description: Murine melanoma B16F10 cells (CRL‐6475) were cultured as previous reported.[17]
3‐(4,5‐Dimethylthiazol‐2‐yl)‐2,5‐diphenyltetrazolium bromide (MTT) was used to measure the cells viability. Cells were seeded in 96‐well plates for 24 hours with a density of 5x10^3 for well. Cells were then treated for 48 h with compounds (ranging from 4 μM to 100 μM). After incubation at 37 °C and 5 % of CO2, 100 μL of MTT reagent were added to the cells and incubated 3 h at 37 °C. After adding DMSO the absorbance was determined at 560 nm. The amount of living cells in treated samples relative to untreated controls (100 %) provided the cell viability. The mean value and standard deviation (SD) were calculated from triplicate experiments.
different concentrations of compounds (4-100 μM) and their viability was evaluated by MTT assay. Data
represent mean ± SD of triplicate experiments.

[7] = system: tyrosinase activity in α‐MSH‐stimulated B16F10 cells; assay: Tyrosinase zymography (L-DOPA staining) in α-MSH-stimulated B16F10 cells; assay type: cell-based, Murine; conditions: Mus musculus, B16-F10, α-MSH (100 nM)-stimulated B16F10 cells, 48 h, read-out: inhibition of tyrosinase activity / melanogenesis
Description: ImageJ software was used to determine the intensity of bands.
A day after seeding the B16F10 cells (6×10^4 cells/mL) the culture medium was substituted by fresh one supplemented with 100 nM α‐MSH.
After incubation for 48 h, cells were washed and lysed using phosphate buffer (25 mM, pH 6.8) containing Triton X‐100 (1 %) and phenylmethyl‐sulfonyl fluoride (0.1 mM). Cellular lysates were centrifugated at 13000 rpm for 20 min at 4 °C. The protein content was determined by Bradford method and BSA was used as standard.
SDS‐polyacrylamide gel electrophoresis was used to resolve the protein extracts previously mixed with 10 mM Tris‐HCl buffer, pH 7.0, containing 1 % SDS, without mercaptoethanol.
After running, gel was rinsed in phosphate buffer (0.1 M, pH 7.0) and equilibrated for 30 min twice. […] Tyrosinase activity was visualized in the gel as dark melanin‐containing bands

[8] = molecular target: T1, TYR from Agaricus bisporus (AbTYR); assay: Inhibition of diphenolase activity of AbTYR (L-DOPA as substrate); conditions: for IC50: IC50 [μM]±SD, inhibition of diphenolase activity of AbTYR, L-DOPA substrate, three replicates;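 on all read-outs here: absorbance measured spectrophotometrically with L-DOPA as substrate, inhibition expressed as percent relative to control sample, IC50 interpolated from dose-response curves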
Description: as §1, §2, §3, §4, §5, §6, §7, §8, §9, §10, §11

Structure (SMILES)	EC50 [3]	mechanism of inhibition of AbTYR [4]	inhibitory effect on monophenolase activity of AbTYR [5]	cytotoxic effect (MTT) [6]	IC50 [8]	also measured
O=C(CN1CCC(Cc2ccccc2)CC1)N1CCN(c2ccc(O)cc2)CC1 [A, 2‐(4‐benzyl‐1‐piperidinyl)‐1‐[4‐(4‐hydroxyphenyl)piperazin‐1‐yl]ethenone]	–	–	–	–	–	IC50 [1]: 3.8 µM
Cc1c(C)c2c(c(C)c1O)CCC(C)(C(=O)O)O2 (stereo not drawn) [Trolox, 6‐hydroxy‐2,5,7,8‐tetramethylchromane‐2‐carboxylic acid]	–	–	–	–	–	EC50 [2]: 13 ± 1.1 µM
O=C(c1ccc(Cl)cc1Cl)N1CCN(c2ccc(O)cc2)CC1 [compound 10, (4‐(4‐Hydroxyphenyl)piperazin‐1‐yl)(2,4‐dichlorophenyl)methanone]	9 ± 0.3 µM	competitive inhibitors	active inhibitors	no cytotoxic effect	1.5 ± 0.1 µM	melting point: 177 to 178 °C; cell viability (MTT) ([6]; until 25 μM): good cell viability; inhibition at 1 µM ([7]; 1 μM): 44%; inhibition at 10 µM ([7]; 10 μM): 73%; inhibition at 25 µM ([7]; 25 μM): 88%
COc1ccccc1C(=O)N1CCN(c2ccc(O)cc2)CC1 [compound 21, [4‐(4‐Hydroxyphenyl)piperazin‐1‐yl](2‐methoxyphenyl)methanone]	9.2 ± 0.2 µM	competitive inhibitors	active inhibitors	no cytotoxic effect	3.5 ± 0.2 µM	fold more potent than reference compound KA [8]: about 3.5 fold
